Test results taken from PMC7155171, “Probing the Open Global Health Chemical Diversity Library for Multistage-Active Starting Points for Next-Generation Antimalarials” (ACS Infectious Diseases, 2020).
Like-named read-outs stand apart in the source and are kept apart here.

Experiments:
[1] = tested on: P. falciparum Dd2 (PfLuc) line expressing firefly luciferase, asexual blood stage; assay: microbe, parasite or virus in culture; format: cell-based, Plasmodium falciparum; conditions: for IC50 / Emax: Plasmodium falciparum
[2] = tested on: P. falciparum Dd2; assay: SYBR green I asexual blood stage proliferation assay (96 h); format: cell-based, Plasmodium falciparum; conditions: Plasmodium falciparum, DD2, 11-pt dose response, 96hr
[3] = DD2, read-out: CDD P. falciparum Luciferase ABS 11-pt Reconfirmation Dose Response (48hr): IC50 (μM), 11-pt dose response, 48hr
[4] = DD2, 8-pt dose response, 96hr, read-out: CDD P. falciparum Luciferase ABS 8-pt Reconfirmation Dose Response (96hr): IC50
[5] = DD2, 8-pt dose response, 96hr, read-out: CDD P. falciparum Luciferase ABS 8-pt Reconfirmation Dose Response (96hr): Maximum inhibition (%)
[6] = DD2, 11-pt dose response, 48hr, read-out: CDD P. falciparum Luciferase ABS 11-pt Reconfirmation Dose Response (48hr): Maximum inhibition (%)
[7] = DD2, 11-pt dose response, 96hr, read-out: CDD P. falciparum Luciferase ABS 11-pt Reconfirmation Dose Response (96hr): IC50
[8] = DD2, 11-pt dose response, 96hr, read-out: CDD P. falciparum Luciferase ABS 11-pt Reconfirmation Dose Response (96hr): Maximum inhibition (%)
[9] = Sybr Green I, read-out: CDD P. falciparum Sybr Green I ABS 11-pt Reconfirmation Dose Response (96hr): IC50
[10] = Sybr Green I, read-out: CDD P. falciparum Sybr Green I ABS 11-pt Reconfirmation Dose Response (96hr): Maximum inhibition (%)
[11] = DD2, read-out: P. falciparum Luciferase ABS 11-pt Reconfirmation Dose Response (48hr): IC50, 11-pt dose response, 48hr
[12] = DD2, 8-pt dose response, 96hr, read-out: P. falciparum Luciferase ABS 8-pt Reconfirmation Dose Response (96hr): IC50
[13] = DD2, 8-pt dose response, 96hr, read-out: P. falciparum Luciferase ABS 8-pt Reconfirmation Dose Response (96hr): Maximum inhibition (%)
[14] = DD2, 11-pt dose response, 48hr, read-out: P. falciparum Luciferase ABS 11-pt Reconfirmation Dose Response (48hr): Maximum inhibition (%)
[15] = DD2, 11-pt dose response, 96hr, read-out: P. falciparum Luciferase ABS 11-pt Reconfirmation Dose Response (96hr): IC50
[16] = DD2, 11-pt dose response, 96hr, read-out: P. falciparum Luciferase ABS 11-pt Reconfirmation Dose Response (96hr): Maximum inhibition (%)
[17] = read-out: P. falciparum Sybr Green I ABS 11-pt Reconfirmation Dose Response (96hr): IC50
[18] = read-out: P. falciparum Sybr Green I ABS 11-pt Reconfirmation Dose Response (96hr): Maximum inhibition (%)

SMILES | IC50 [1, 3] [µM] | IC50 [1, 4] [µM] | Emax [1, 5] [%] | Emax [1, 6] [%] | IC50 [1, 7] [µM] | Emax [1, 8] [%] | IC50 [2, 9] [µM] | Emax [2, 10] [%] | IC50 [1, 11] [µM] | IC50 [1, 12] [µM] | Emax [1, 13] [%] | Emax [1, 14] [%] | IC50 [1, 15] [µM] | Emax [1, 16] [%] | IC50 [2, 17] [µM] | Emax [2, 18] [%] | activity in ABS screens [1]
Cc1cc(CN2CCC(CNS(=O)(=O)c3ccc(Br)s3)CC2)c(C)o1 [DDD01027665] | 3.89 | 0.63 | 89.4 | 82 | 1.08 | 95 | > 12.5 | 32.7 | – | – | – | – | – | – | – | – | –
COc1ccc(CCC(=O)NCCN2CCC(c3cccs3)CC2)cc1 [DDD01028015] | 11.4 | 0.95 | 85.7 | 69.6 | 2.24 | 86.6 | 4.17 | 71.9 | – | – | – | – | – | – | – | – | –
O=C(NCCc1ccccc1)NCCN1CCC(c2cccs2)CC1 [DDD01028018] | – | – | – | – | – | – | – | – | 5.18 | 1.18 | 87.7 | 64 | 1.42 | 87.1 | > 4.16 | 69.6 | –
COc1ccc(NC(=O)Nc2cnc(N3CCN(C)CC3)nc2)cc1Cl [DDD01028129] | – | – | – | – | – | – | – | – | > 12.5 | 1.39 | 94.1 | 14.8 | 4.41 | 57.8 | > 12.5 | 38.2 | –
c1ccc(C[C@H]2CN(C3CCOCC3)CC[C@H]2OCC2CC2)cc1 [DDD01028772] | > 12.5 | 0.69 | 87 | 70.2 | 1.04 | 91.3 | 7.17 | 69.9 | – | – | – | – | – | – | – | – | –
CN1CCC2(CCCN(c3nccc(C(F)(F)F)n3)C2)CC1 [DDD01028783] | > 12.5 | 0.75 | 87.2 | 60.6 | 3.57 | 84.9 | 8.82 | 74 | – | – | – | – | – | – | – | – | –
CC(C)N1CCC2(CCCN(c3nccc(C(F)(F)F)n3)C2)CC1 [DDD01028790] | 3.12 | 0.61 | 89.3 | 69 | 1.33 | 91.1 | 9.75 | 76.4 | – | – | – | – | – | – | – | – | –
Fc1cccc(CN2C[C@@H]3CN(Cc4ccccn4)C[C@@H]3C2)c1 [DDD01029091] | 1.16 | 0.62 | 95.3 | 94 | 0.354 | 100 | 2.34 | – | – | – | – | – | – | – | – | – | –
NCC1[C@H]2CN(Cc3cccc(Cl)c3)C[C@@H]12 (stereo partly shown) [DDD01029240] | 2.68 | 0.55 | 93.8 | 85 | 1.2 | 99 | 1.89 | 90.7 | – | – | – | – | – | – | – | – | –
c1ccc(CN2CCCC3(CCN(Cc4cccs4)C3)C2)nc1 (stereo not shown) [DDD01029520] | – | – | – | – | – | – | – | – | 6.38 | 1.97 | 83.5 | 51.8 | 2.96 | 86.9 | > 4.16 | 58 | –
c1ccc(N2CCCC3(CCN(Cc4ccsc4)C3)C2)nc1 (stereo not shown) [DDD01029521] | 3.75 | 1.02 | 83.9 | 64.3 | 2.51 | 86.9 | 1.88 | 66.8 | – | – | – | – | – | – | – | – | –
Fc1ccc(CN2CCC3(CC2)CCN(Cc2nccs2)CC3)cc1 [DDD01031337] | 8.85 | 0.78 | 88.8 | 69.4 | 1.46 | 87.9 | > 1.39 | 71.7 | – | – | – | – | – | – | – | – | –
Cc1ccc(CN2CCC3(CC2)CCN(Cc2ccoc2)CC3)cc1 [DDD01031590] | 2.04 | 0.24 | 94.3 | 86.7 | 0.444 | 99.4 | 2.33 | – | – | – | – | – | – | – | – | – | –
Cc1ccc(CN2CCC3(CC2)CCN(Cc2ccco2)CC3)cc1 [DDD01031591] | 7.27 | 0.77 | – | 74.1 | 0.938 | 94.4 | 6.72 | 84.1 | – | – | – | – | – | – | – | – | –
CN1[C@H](Cn2cccn2)C[C@@H]2CN(Cc3cccs3)CC[C@@H]21 [DDD01032287] | > 12.5 | 0.77 | 80.2 | 45.9 | > 1.39 | 85.9 | > 4.16 | 67.6 | – | – | – | – | – | – | – | – | –
c1cncc(N2CCCC3(CCN(CCN4CCCC4)CC3)C2)c1 [DDD01032557] | – | – | – | – | – | – | – | – | 7.21 | 1.19 | – | 83.2 | 1.41 | 99.7 | 2.44 | 93.7 | –
CN(C)[C@@H]1CCN(c2ncc(F)cn2)[C@H]1Cc1ccccc1 [DDD01033375] | 5.55 | 1.11 | 86.7 | 53.2 | 2.25 | 86.9 | > 4.16 | 74.6 | – | – | – | – | – | – | – | – | –
CCN1CCC2(CC1)CC(NCc1cccs1)c1ccccc1O2 (stereo not shown) [DDD01034117] | 2.44 | 0.39 | 91.4 | 72.4 | 0.515 | 91.9 | 3.4 | 78.6 | – | – | – | – | – | – | – | – | –
CCN1CCC2(CC1)CC(NCc1cccc(C)n1)c1ccccc1O2 (stereo not shown) [DDD01034133] | 11.7 | 0.72 | – | 67.5 | 3.23 | 88.1 | 10.3 | 79.5 | – | – | – | – | – | – | – | – | –
CCN1CCC2(CC1)CC(NCc1ccncc1)c1ccccc1O2 (stereo not shown) [DDD01034171] | > 12.5 | 0.75 | 87.7 | 61.8 | 3.05 | 86 | > 4.16 | 74 | – | – | – | – | – | – | – | – | –
COc1ccc(N2CCCC3(C2)CN(c2nncs2)CCO3)cc1 (stereo not shown) [DDD01034473] | 0.758 | 0.2 | 95 | – | 0.451 | 97.9 | 0.83 | 95.3 | – | – | – | – | – | – | – | – | –
CCOc1ccc(Br)cc1C1CCCCN1 (stereo not shown) [DDD01034784] | > 12.5 | 0.81 | 86.8 | 60 | > 1.39 | 90.9 | 2.78 | 65.2 | – | – | – | – | – | – | – | – | –
CCOc1ccc(Br)cc1C1CCCN1 (stereo not shown) [DDD01034787] | 4.88 | 0.85 | 85.8 | 59.1 | 1.38 | 86.3 | 7.59 | 78.7 | – | – | – | – | – | – | – | – | –
Cc1c(C)n(CC(O)CN2CCN(CCO)CC2)c2c(Cl)cccc12 (stereo not shown) [DDD01034970] | – | – | – | – | – | – | – | – | 3.79 | 1.15 | 85.4 | 86.8 | 2.24 | 95.9 | > 4.16 | 73.1 | –
CC(N)Cc1ccccc1Sc1ccccc1 (stereo not shown) [DDD01035540] | – | – | – | – | – | – | – | – | 3.57 | 1.63 | 92 | 89.6 | 0.558 | 98.2 | 4.17 | 86.1 | –
c1ccc(Sc2ccc3c(c2)OCO3)c(CNC2=NCCN2)c1 [DDD01035544] | 7.86 | 1.05 | 85.5 | 75 | 1.67 | 95.1 | > 4.16 | 65.9 | – | – | – | – | – | – | – | – | –
CN(C)[C@@H]1CCN(c2ncccn2)[C@H]1Cc1ccccc1 [DDD01036700] | > 12.5 | 0.85 | 85.6 | 47.6 | 2.4 | 80.9 | > 4.16 | 74.7 | – | – | – | – | – | – | – | – | –
CC(O)c1cccc(Nc2nc(NCCO)c3ccccc3n2)c1 (stereo not shown) [DDD01037968] | 2.9 | 0.29 | 92.4 | 96.3 | 0.739 | 99.6 | 3.13 | 95.8 | – | – | – | – | – | – | – | – | active in ABS screens
CCN(CC)CCNS(=O)(=O)c1cccc(CSC)c1 [DDD01038216] | 10.2 | 0.58 | 87.3 | 58.8 | 2.99 | 89.5 | 7.55 | 73.7 | – | – | – | – | – | – | – | – | –
Oc1ccc(Cl)cc1CNCc1ccccc1Cl [DDD01038243] | > 12.5 | 1.02 | 90.3 | 59.4 | 4.2 | 88.4 | > 12.5 | 34.6 | – | – | – | – | – | – | – | – | –
